Test results: patent publication US7754722B2, “Piperazine derivatives and methods of use” (Merck Serono SA, priority 2002, dated 2010)

Biological target: T1, FSH receptor (Homo sapiens, UniProt P23945)
T1 construct: expressed in transfected cells; host or cells: CHO (Chinese Hamster Ovary) cells, stably transfected, carrying a cAMP response element-luciferase reporter
T1 sequence (P23945 18-695): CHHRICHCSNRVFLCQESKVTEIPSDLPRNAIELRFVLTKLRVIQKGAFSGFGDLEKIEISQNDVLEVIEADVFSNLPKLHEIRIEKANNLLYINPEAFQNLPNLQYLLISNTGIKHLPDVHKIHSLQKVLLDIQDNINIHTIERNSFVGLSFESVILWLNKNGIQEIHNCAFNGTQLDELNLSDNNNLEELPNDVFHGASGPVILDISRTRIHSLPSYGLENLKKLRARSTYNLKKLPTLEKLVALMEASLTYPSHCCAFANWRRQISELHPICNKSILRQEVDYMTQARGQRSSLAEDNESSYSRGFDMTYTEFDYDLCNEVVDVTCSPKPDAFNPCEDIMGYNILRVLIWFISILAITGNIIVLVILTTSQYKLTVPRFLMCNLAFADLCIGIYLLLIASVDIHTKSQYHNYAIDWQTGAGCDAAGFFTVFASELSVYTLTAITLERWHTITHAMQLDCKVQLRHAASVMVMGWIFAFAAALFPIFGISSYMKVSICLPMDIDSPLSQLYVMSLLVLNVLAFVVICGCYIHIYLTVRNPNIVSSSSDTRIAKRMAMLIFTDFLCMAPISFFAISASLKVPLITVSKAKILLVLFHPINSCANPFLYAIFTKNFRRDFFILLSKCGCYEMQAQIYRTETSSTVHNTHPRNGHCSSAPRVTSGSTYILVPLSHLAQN
Assay: FSH assay: cAMP response element luciferase reporter in CHO cells expressing recombinant FSH receptor
Assay type: cell-based
Settings: agonist activity; CHO cells stably transfected with recombinant FSH receptor; luciferase luminescence; log-dose-response curves; incubation 37° C. for 3 hrs 30 min; read-out: ED50 (the source's name)
Procedure: Compounds of the invention were tested in the following assay.
All compounds of the invention were stored in 96-well deepwell plates in DMSO at a nominal concentration of 10 μM. Compounds of the invention were screened for agonist activity at the FSH receptor using the recombinant FSH receptor stably transfected and expressed in Chinese Hamster Ovary Cells (CHO cells) essentially as described in the work by Kelton, et al. Molecular and Cellular Endocrinology, 1992, 89, 141-151). […] Thus an agonist at the FSH receptor increases cAMP in the cell which results in activation of the CREB (cAMP) response element binding protein). The substrate for the enzyme (Packard Instrument Company 800 Research Parkway, Meriden, Conn. 06450, USA) was added to the cells after appropriate incubation with the compounds or FSH and the amount of luciferase expressed was measured by quantitating the luminescence produced by the enzyme using a TopCount scintillation/luminescence counter running in single photon counting mode. A compound which acts as an agonist at the receptor should produce light from the treated cells in proportion to its concentration within the incubation. Luminescence should be saturable at high concentrations of the compound.
The compounds of the invention, in deepwell plates (Master plates) as indicated above were loaded on the robotic deck along with the appropriate number of assay plates and daughter plates. A 10 μl aliquot from each master plate was transferred to the corresponding daughter plate and 90 μl of DME/F12 was added and mixed within each well. 20 μl was then removed from the daughter plate and dispensed into the assay plate. After addition of an aliquot of FSH (equivalent to an EC100 response for this hormone to each of three wells on the plate, 80 μl of media (DME/F 12±2% serum) and 100 μl aliquot of cells (4×10^5/ml in the same media) were added and the plate incubated at 37° C. for 3 hrs 30 min. At this time the plate was removed from the incubator and media in each well was aspirated and the cells adhering to the bottom of the plate washed with 300 μl PBS containing 1 mM Ca^2+ and 1 mM Mg^2+. The PBS was aspirated and 100 μl PBS added to each well. 100 μl of Lucite (prepared as described by the manufacturer) was added to each well and the plate was shaken gently for 40 seconds prior to placement in the TopCount plate reader. After allowing 3.5 minutes for the plate to dark-adapt within the machine, the amount of luminescence generated was quantitated using Single Photon Counting mode. The data was transmitted electronically from the TopCount to the robot processing computer terminal and was renamed with an ID corresponding to the original master plate ID. […] LDR (log-dose-response) curves were generated for these compounds in CHO cells containing the FSH receptor and these curves were also compared with those in either cells expressing a different Gs linked receptor or in cells lacking any transfected receptor.

Row | Compound | EC50 [nM]
1 | CCCCCCN1CCN(S(=O)(=O)c2ccccc2F)[C@H](C(=O)Nc2ccc3c(c2)nc(-c2cccnc2)n3CC)C1 [1-(2-fluoro-benzenesulfonyl)-4-hexyl-piperazine-2-carboxylic acid (1-ethyl-2-pyridin-3-yl-1H-benzoimidazol-5-yl)amide] | 74
2 | CCCCCCN1CCN(S(=O)(=O)c2ccc(F)cc2)[C@H](C(=O)Nc2ccc3c(c2)nc(-c2cccnc2)n3CC)C1 [1-(4-fluoro-benzenesulfonyl)-4-hexyl-piperazine-2-carboxylic acid (1-ethyl-2-pyridin-3-yl-1H-benzoimidazol-5-yl)amide] | 167
3 | CCCCCCN1CCN(S(=O)(=O)CCCC)[C@H](C(=O)Nc2ccc3c(c2)nc(-c2cccnc2)n3CC)C1 [1-(butane-1-sulfonyl)-4-hexyl-piperazine-2-carboxylic acid (1-ethyl-2-pyridin-3-yl-1H-benzoimidazol-5-yl)amide] | 170
4 | CCCCCCN1CCN(S(=O)(=O)c2ccccc2)[C@H](C(=O)Nc2ccc3c(c2)nc(-c2cccnc2)n3CC)C1 [1-benzenesulfonyl-4-hexyl-piperazine-2-carboxylic acid (1-ethyl-2-pyridin-3-yl-1H-benzoimidazol-5-yl)amide] | 150
5 | CCCCCCN1CCN(S(=O)(=O)N(C)C)C(C(=O)Nc2ccc3c(c2)nc(-c2cccnc2)n3CC)C1 (centres unmarked) [1-dimethylsulfamoyl-4-hexyl-piperazine-2-carboxylic acid (1-ethyl-2-pyridin-3-yl-1H-benzoimidazol-5-yl) amide] | 242
6 | CCCCCCCN1CCN(S(=O)(=O)c2cccs2)[C@H](C(=O)Nc2ccc3c(c2)nc(-c2cccnc2)n3CC)C1 [4-heptyl-1-(thiophene-2-sulfonyl)-piperazine-2-carboxylic acid (1-ethyl-2-pyridin-3-yl-1H-benzoimidazol-5-yl)-amide] | 94
7 | CCCCCCCN1CCN(S(=O)(=O)c2cccs2)[C@H](C(=O)Nc2ccc3c(c2)nc(-c2ccncc2)n3CC)C1 [4-heptyl-1-(thiophene-2-sulfonyl)-piperazine-2-carboxylic acid (1-ethyl-2-pyridin-4-yl-1H-benzoimidazol-5-yl)amide] | 53
8 | CCCCCCCN1CCN(S(=O)(=O)c2cccs2)C(C(=O)Nc2ccc3[nH]c4c(c3c2)CCNC4=O)C1 (stereo not drawn) [4-heptyl-1-(thiophene-2-sulfonyl)-piperazine-2-carboxylic acid (1-oxo-2,3,4,9-tetrahydro-1H-beta-carbolin-6-yl)amide] | 1200
9 | CCCCCCN1CCN(S(=O)(=O)c2cccs2)[C@H](C(=O)Nc2ccc3c(c2)nc(-c2ccncc2)n3CC)C1 [4-hexyl-1-(thiophene-2-sulfonyl)-piperazine-2-carboxylic acid (1-ethyl-2-pyridin-4-yl-1H-benzoimidazol-5-yl)amide] | 111
10 | CCCCCCN1CCN(S(=O)(=O)c2cccs2)[C@H](C(=O)Nc2ccc3[nH]c4c(c3c2)CCNC4=O)C1 [4-hexyl-1-(thiophene-2-sulfonyl)-piperazine-2-carboxylic acid (1-oxo-2,3,4,9-tetrahydro-1H-beta-carbolin-6-yl)-amide] | 978

Other lines, results leading:

Row | EC50 [nM] | Compound
11 | 610 | CCOC(=O)CN1CCN(S(=O)(=O)c2cccs2)[C@H](C(=O)Nc2ccc3c(c2)c2ccccc2n3CC)C1 [3-(9-ethyl-9H-carbazol-3-ylcarbamoyl)-4-(thiophene-2-sulfonyl)-piperazin-1-yl] acetic acid ethyl ester]
12 | 3160 | CCCCCNC(=O)N1CCN(S(=O)(=O)c2cn(C)cn2)[C@H](C(=O)Nc2ccc3c(c2)c2ccccc2n3CC)C1 [4-(1-methyl-1H-imidazole-4-sulfonyl)-piperazine-1,3-dicarboxylic acid 3-[(9-ethyl-9H-carbazol-3-yl)-amide]1-pentylamide]
13 | 14000 | CCn1c(-c2ccncc2)nc2cc(NC(=O)[C@@H]3CN(CCCSC)CCN3S(=O)(=O)c3cccs3)ccc21 [4-(3-methylsulfanyl-propyl)-1-(thiophene-2-sulfonyl)-piperazine-2-carboxylic acid (1-ethyl-2-pyridin-4-yl-1H-benzoimidazol-5-yl)amide]
14 | 1700 | CCn1c2ccccc2c2cc(NC(=O)[C@@H]3CN(CCCSC)CCN3S(=O)(=O)c3cccs3)ccc21 [4-(3-methylsulfanyl-propyl)-1-(thiophene-2-sulfonyl)-piperazine-2-carboxylic acid (9-ethyl-9H-carbazol-3-yl)-amide]
15 | 1600 | CCc1cocc1CN1CCN(S(=O)(=O)c2cccs2)[C@H](C(=O)Nc2ccc3c(c2)c2ccccc2n3CC)C1 [4-(4-ethyl-furan-3-ylmethyl)-1-(thiophene-2-sulfonyl)-piperazine-2-carboxylic acid (9-ethyl-9H-carbazol-3-yl)-amide]
16 | 5000 | CCCCCNC(=O)N1CCN(S(=O)(=O)c2cccs2)[C@H](C(=O)Nc2cccc(-c3ccncc3)c2)C1 [4-(thiophene-2-sulfonyl)-piperazine-1,3-dicarboxyclic acid 1-pentylamide 3-[(3-pyridin-4-yl-phenyl)-amide]]
17 | 877 | CCNC(=O)N1CCN(S(=O)(=O)c2cccs2)[C@H](C(=O)Nc2ccc3c(c2)c2ccccc2n3CC)C1 [4-(thiophene-2-sulfonyl)-piperazine-1,3-dicarboxylic acid 1-ethylamide 3-[(9-ethyl-9H-carbazol-3-yl)amide]]
18 | 6470 | CCn1c2ccccc2c2cc(NC(=O)[C@@H]3CN(C(=O)NCCCn4ccnc4)CCN3S(=O)(=O)c3cccs3)ccc21 [4-(thiophene-2-sulfonyl)-piperazine-1,3-dicarboxylic acid 3-[(9-ethyl-9H-carbazol-3-yl)-amide]1-[(3-imidazol-1-yl-propyl)-amide])]
19 | 1610 | CCn1c2ccccc2c2cc(NC(=O)[C@@H]3CN(C(=O)NCCOC)CCN3S(=O)(=O)c3cccs3)ccc21 [4-(thiophene-2-sulfonyl)-piperazine-1,3-dicarboxylic acid 3-[(9-ethyl-9H-carbazol-3-yl)-amide]1-{(2-methoxy-ethyl)-amide]]
20 | 6250 | CCn1c2ccccc2c2cc(NC(=O)[C@@H]3CN(C(=O)NCCc4c[nH]cn4)CCN3S(=O)(=O)c3cccs3)ccc21 [4-(thiophene-2-sulfonyl)-piperazine-1,3-dicarboxylic acid 3-[(9-ethyl-9H-carbazol-3-yl)-amide] 1-{[2-(1H-imidazol-4-yl)-ethyl]-amide}]
21 | 63 | CCCCCNC(=O)N1CCN(S(=O)(=O)c2cccs2)[C@H](C(=O)Nc2ccc3c(c2)c2ccccc2n3CC)C1 [4-(thiophene-2-sulfonyl)-piperazine-1,3-dicarboxylic acid 3-[(9-ethyl-9H-carbazol-3-yl)amide]-1-pentylamide]
22 | 403 | CCCCCNC(=O)N1CCN(S(=O)(=O)N(C)C)[C@H](C(=O)Nc2ccc3c(c2)c2ccccc2n3CC)C1 [4-dimethylsulfamoyl-piperazine-1,3-dicarboxylic acid 3-[(9-ethyl-9H-carbazol-3-yl)-amide]1-pentylamide]
23 | 40 | CCCCCCN1CCN(S(=O)(=O)c2cccs2)[C@H](C(=O)Nc2ccc3c(c2)nc(-c2cccnc2)n3CC)C1 [4-hexyl-1-(thiophene-2-sulfonyl)-piperazine-2-carboxylic acid (1-ethyl-2-pyridinyl-3-yl-1H-benzoimidazole-5-yl)-amide)]
